Laboratory results reported in ChEMBL document CHEMBL4265921, “Novel bisphosphonates with antiresorptive effect in bone mineralization and osteoclastogenesis” (Eur J Med Chem, 2018).
pIC50: −log10 of the molar value. The source made the active and inactive calls. The calls are words filed in the database; no cut-off is given here.

Experiments:
[1] = system: J774.A1; test: Antiproliferative activity against mouse J774A.1 cells assessed as change in cell proliferation at 100 uM after 72 hrs by crystal violet staining based assay relative to control; assay type: functional
[2] = system: RAW264.7; test: Antiproliferative activity against mouse RAW264.7 cells assessed as change in cell proliferation at 100 uM after 72 hrs by crystal violet staining based assay relative to control; assay type: functional
[3] = system: MG-63; test: Antiproliferative activity against human MG63 cells assessed as change in cell proliferation at 100 uM after 72 hrs by crystal violet staining based assay relative to control; assay type: functional
[4] = system: PC-3; test: Antiproliferative activity against human PC3 cells assessed as change in cell proliferation at 100 uM after 72 hrs by crystal violet staining based assay relative to control; assay type: functional
[5] = system: J774.A1; test: Antiproliferative activity against mouse J774A.1 cells assessed as reduction in cell proliferation at 500 uM after 72 hrs by crystal violet staining based assay; assay type: functional
[6] = system: RAW264.7; test: Antiproliferative activity against mouse RAW264.7 cells assessed as reduction in cell proliferation at 500 uM after 72 hrs by crystal violet staining based assay; assay type: functional
[7] = system: MG-63; test: Antiproliferative activity against human MG63 cells assessed as reduction in cell proliferation at 500 uM after 72 hrs by crystal violet staining based assay; assay type: functional
[8] = system: PC-3; test: Antiproliferative activity against human PC3 cells assessed as reduction in cell proliferation at 500 uM after 72 hrs by crystal violet staining based assay; assay type: functional
[9] = target: T1, Farnesyl pyrophosphate synthase (Homo sapiens) (UniProt P14324); test: Inhibition of recombinant human C-terminal His6-tagged FPPS expressed in Escherichia coli BL21 at 100 uM using DMAPP and IPP as substrates pretreated for 15 mins followed by substrates addition and measured after 1 hr by colorimetric method relative to control
T1 sequence (whole entry): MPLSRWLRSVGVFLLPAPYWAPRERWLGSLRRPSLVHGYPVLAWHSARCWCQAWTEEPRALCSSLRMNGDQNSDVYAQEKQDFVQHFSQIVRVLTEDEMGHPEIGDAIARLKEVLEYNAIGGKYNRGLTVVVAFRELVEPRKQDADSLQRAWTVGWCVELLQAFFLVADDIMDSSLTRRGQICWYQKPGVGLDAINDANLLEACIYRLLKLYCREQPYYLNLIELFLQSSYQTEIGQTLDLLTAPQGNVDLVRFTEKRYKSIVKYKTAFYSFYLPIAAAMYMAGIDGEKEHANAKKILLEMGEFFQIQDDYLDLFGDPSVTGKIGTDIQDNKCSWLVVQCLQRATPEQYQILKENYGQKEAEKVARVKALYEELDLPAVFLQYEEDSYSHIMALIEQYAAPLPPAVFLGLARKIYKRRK

[10] = target: T1, Farnesyl pyrophosphate synthase (Homo sapiens); test: Inhibition of recombinant human C-terminal His6-tagged FPPS expressed in Escherichia coli BL21 at 1 to 10 uM using DMAPP and IPP as substrates pretreated for 15 mins followed by substrates addition and measured after 1 hr by colorimetric method relative to control
[11] = target: T2, Geranylgeranyl pyrophosphate synthase (Homo sapiens) (UniProt O95749); test: Inhibition of recombinant human C-terminal His6-tagged GGPPS expressed in Escherichia coli BL21 at 1 to 10 uM using IPP and FPP as substrates pretreated for 15 mins followed by substrates addition and measured after 1 hr by colorimetric method relative to control
T2 sequence (whole entry): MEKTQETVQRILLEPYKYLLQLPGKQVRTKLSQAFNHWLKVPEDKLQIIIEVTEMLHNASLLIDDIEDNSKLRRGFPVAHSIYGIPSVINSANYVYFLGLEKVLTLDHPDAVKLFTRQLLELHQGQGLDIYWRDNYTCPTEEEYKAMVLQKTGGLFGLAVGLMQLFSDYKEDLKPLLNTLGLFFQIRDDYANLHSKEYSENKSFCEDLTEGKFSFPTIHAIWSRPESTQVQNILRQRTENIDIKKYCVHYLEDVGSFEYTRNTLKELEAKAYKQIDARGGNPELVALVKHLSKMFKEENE

[12] = system: Hydroxyapatite; test: Binding affinity to hydroxyapatite at 100 uM using sodium salt form of compound after 5 mins by ESI/MS analysis
[13] = system: J774.A1; test: Antiproliferative activity against mouse J774A.1 cells assessed as reduction in cell viability at 100 uM after 72 hrs by WST8 assay; assay type: functional, cell-based
[14] = system: RAW264.7; test: Antiproliferative activity against mouse RAW264.7 cells assessed as reduction in cell viability at 100 uM after 72 hrs by WST8 assay; assay type: functional, cell-based
[15] = system: MG-63; test: Antiproliferative activity against human MG63 cells assessed as reduction in cell viability at 100 uM after 72 hrs by WST8 assay; assay type: functional, cell-based
[16] = system: PC-3; test: Antiproliferative activity against human PC3 cells assessed as reduction in cell viability at 100 uM after 72 hrs by WST8 assay; assay type: functional, cell-based
[17] = system: RAW264.7; test: Antiproliferative activity against RANKL-differentiated mouse RAW264.7 cells assessed as reduction in cell viability at 100 uM after 72 hrs by CCK8 assay; assay type: functional, cell-based
[18] = system: RAW264.7; test: Inhibition of RANKL-induced osteoclastogenesis in mouse RAW264.7 cells after 72 hrs by TRAP staining based microscopic analysis; assay type: functional, cell-based
[19] = system: MC3T3-E1; test: Induction of mineralization in mouse MC3T3-E1 cells at 30 to 50 nM after 10 to 15 days by alizarin red dye based assay; assay type: functional, cell-based
[20] = system: Bone marrow cell; test: Induction of mineralization in C57BL mouse bone marrow cells at 50 nM supplemented with fresh medium containing compound every 3 days for 10 to 15 days by alizarin red dye based assay; assay type: functional
[21] = system: Bone marrow cell; test: Induction of mineralization in C57BL mouse bone marrow cells co-cultured with human PC3 cells at 50 to 100 nM supplemented with fresh medium containing compound every 3 days for 10 to 15 days by alizarin red dye based assay; assay type: functional
[22] = system: Bone marrow cell; test: Induction of cell proliferation in C57BL mouse bone marrow cells at 100 nM after 72 hrs by crystal violet staining based assay; conditions: 0.1 µM
[23] = system: Bone marrow cell; test: Cytotoxicity against C57BL mouse bone marrow cells assessed as decrease in cell proliferation at 100 to 500 uM after 72 hrs by crystal violet staining based assay; design: scale not given: the % may be the effect or the level left
[24] = system: MC3T3-E1; test: Induction of mineralization in mouse MC3T3-E1 cells at >500 nM after 10 to 15 days by alizarin red dye based assay; assay type: functional, cell-based
[25] = system: Bone marrow cell; test: Induction of mineralization in C57BL mouse bone marrow cells at >50 nM supplemented with fresh medium containing compound every 3 days for 10 to 15 days by alizarin red dye based assay; assay type: functional
[26] = system: Bone marrow cell; test: Induction of mineralization in C57BL mouse bone marrow cells co-cultured with human PC3 cells at >100 nM supplemented with fresh medium containing compound every 3 days for 10 to 15 days by alizarin red dye based assay; assay type: functional
[27] = target: T3, Farnesyl pyrophosphate synthase (Homo sapiens, UniProt P14324); test: Inhibition of recombinant human C-terminal His6-tagged FPPS expressed in Escherichia coli BL21 using DMAPP and IPP as substrates pretreated for 15 mins followed by substrates addition and measured after 1 hr by colorimetric method
T3 sequence (P14324 whole entry): T1 sequence (whole entry)

[28] = system: Bone marrow cell; test: Cytotoxicity against C57BL mouse bone marrow cells assessed as effect on cell proliferation at 0.03 to 500 uM after 72 hrs by crystal violet staining based assay
[29] = system: Bone marrow cell; test: Induction of cell proliferation in C57BL mouse bone marrow cells at 30 nM after 72 hrs by crystal violet staining based assay; conditions: 0.03 µM
[30] = system: MG-63; test: Antiproliferative activity against human MG63 cells assessed as reduction in cell viability at 2.14 uM after 72 hrs by WST8 assay; assay type: functional, cell-based
[31] = system: PC-3; test: Antiproliferative activity against human PC3 cells assessed as reduction in cell viability at 2.14 uM after 72 hrs by WST8 assay; assay type: functional, cell-based

Structure (SMILES) | Activity [1] [%] | Activity [2] [%] | Activity [3] [%] | Activity [4] [%] | Activity [5] | Activity [6] | Activity [7] | Activity [8] | inhibition [9] [%] | inhibition [10] [%] | inhibition [11] [%] | Activity [12] [%] | Activity [13] | Activity [14] | Activity [15] | Activity [16] | Activity [17] | inhibition [18] | Activity [20] | Activity [21] | other results
O=P(O)(O)C(O)(CNc1ncnc2ccccc12)P(=O)(O)O | -27.398 | -34.592 | -15.397 | -9.488 | inactive | inactive | inactive | inactive | 52 | 68 to 79 | 68 to 79 | 81 |  |  |  |  |  |  |  |  | 
O.O=P(O)(O)C(O)(Cn1ccnc1)P(=O)(O)O [ZOLEDRONIC ACID] | -60.657 | -54.523 | -27.901 | -28.408 |  |  |  |  |  |  |  | > 95 | Active | Active | Active | Active | Active | Active | Active | Active | Activity [19]: Active; Activity [22]: Toxic; Activity [23]: 20%; Activity [24]: inactive; Activity [25]: inactive; Activity [26]: inactive
O=P(O)(O)C(O)(CCNc1ncc2ccccc2n1)P(=O)(O)O | -59.879 | -52.95 | 1.174 | -13.524 | inactive | inactive | inactive | inactive | 79 | 68 to 79 | 68 to 79 | 84 |  |  |  |  |  |  |  |  | pIC50 [27]: 4.39
O=P(O)(O)C(O)(Cc1cccnc1)P(=O)(O)O [RISEDRONIC ACID] |  |  |  |  |  |  |  |  |  |  |  | 87 | Active | Active | Active | Active | Active | Active | Active | inactive | Activity [28]: Non-Toxic; Activity [24]: inactive; Activity [25]: inactive; Activity [26]: inactive
O=P(O)(O)C(O)(CNc1ncccn1)P(=O)(O)O | -31.512 | -47.365 | -16.295 | -29.682 | inactive | inactive | inactive | inactive | 96 | 68 to 79 | 68 to 79 | 90 | Active | Active | Active | Active | Active | Active | Active | Active | pIC50 [27]: 6.51; Activity [19]: Active; Activity [29]: Toxic; Activity [24]: inactive; Activity [25]: inactive; Activity [26]: inactive
CN[C@@H]1C[C@H]2O[C@@](C)([C@@H]1OC)n1c3ccccc3c3c4c(c5c6ccccc6n2c5c31)C(=O)NC4 |  |  |  |  |  |  |  |  |  |  |  |  |  |  |  |  |  |  |  |  | Activity [30]: Active; Activity [31]: Active
O=P(O)(O)C(O)(CCCNc1ncc2ccccc2n1)P(=O)(O)O | -58.954 | -24.106 | 5.921 | -19.628 | inactive | inactive | inactive | inactive | 30 | 68 to 79 | 68 to 79 |  |  |  |  |  |  |  |  |  | 
NCCCC(O)(P(=O)(O)O)P(=O)(O)O [ALENDRONIC ACID] |  |  |  |  |  |  |  |  |  |  |  |  | Active | Active | Active | Active | Active | Active | Active | inactive | Activity [28]: Non-Toxic; Activity [24]: inactive; Activity [25]: inactive; Activity [26]: inactive
O=P(O)(O)C(O)(CCCNc1ncnc2ccccc12)P(=O)(O)O | -10.813 | -16.077 | 21.28 | -27.057 | inactive | inactive | inactive | inactive | 25 | 68 to 79 | 68 to 79 |  |  |  |  |  |  |  |  |  | 
O=P(O)(O)C(O)(CCNc1nc(-c2ccccc2)nc2ccccc12)P(=O)(O)O | -37.121 | -30.319 | -5.102 | -21.523 | inactive | inactive | inactive | inactive | 25 | 68 to 79 | 68 to 79 |  |  |  |  |  |  |  |  |  | 
O=P(O)(O)C(O)(CNc1ncc2ccccc2n1)P(=O)(O)O | -11.108 | -25.015 | -15.998 | -23.934 | inactive | inactive | inactive | inactive | 39.9 | 68 to 79 | 68 to 79 |  |  |  |  |  |  |  |  |  | 
O=P(O)(O)C(O)(CCNc1ncccn1)P(=O)(O)O | -3.329 | -18.897 | -18.291 | -49.419 | inactive | inactive | inactive | inactive | 54 | 68 to 79 | 68 to 79 |  |  |  |  |  |  |  |  |  | 
